From US20050197364A1, “Amide compounds as ion channel ligands and uses thereof” (priority 2003, published 2005)

System: VR1 receptor
Assay: High throughput calcium imaging assay (Fura2, Flex Station) of VR1 antagonists, pH 5.1 stimulus
Type: cell-based
Settings: 1 uM compound; inhibition of calcium ion influx induced by capsaicin stimulation

| SMILES | % Inhibition @ 1 uM |
| --- | --- |
| CCCCc1ccc(NC(=O)c2ccc(-c3ncccc3Cl)c(OC)c2)cc1 [Compound 204] | + + (“+ +” compound exhibited 25-50% inhibition of calcium ion influx induced by capsaicin stimulation.) |
| COc1cc(C(=O)Nc2ccc(C)cc2C)ccc1-c1ncccc1Cl [Compound 206] | + + + + (“+ + + +” compound exhibited 75% or greater inhibition of calcium ion influx induced by capsaicin stimulation.) |
| COc1cc(C(=O)Nc2ccc(F)cc2[N+](=O)[O-])ccc1-c1ncccc1Cl [Compound 210] | + + + + (“+ + + +” compound exhibited 75% or greater inhibition of calcium ion influx induced by capsaicin stimulation.) |
| COc1ccc(NC(=O)c2ccc(-c3ncccc3Cl)c(OC)c2)cc1Cl [Compound 212] | + + + (“+ + +” compound exhibited 50-75% inhibition of calcium ion influx induced by capsaicin stimulation.) |
| COc1cc(C(=O)Nc2ccc(C(F)(F)F)cc2)ccc1-c1ncccc1Cl [Compound 213] | + + (“+ +” compound exhibited 25-50% inhibition of calcium ion influx induced by capsaicin stimulation.) |
| COc1cc(C(=O)Nc2ccc(Cl)c(C(F)(F)F)c2)ccc1-c1ncccc1Cl [Compound 214] | + (“+” compound exhibited 0-25% inhibition of calcium ion influx induced by capsaicin stimulation.) |
| COc1cc(C(=O)Nc2cc(C)cc(C)n2)ccc1-c1ncccc1Cl [Compound 217] | + (“+” compound exhibited 0-25% inhibition of calcium ion influx induced by capsaicin stimulation.) |
| COc1cc(C(=O)Nc2ccncc2)ccc1-c1ncccc1Cl [Compound 218] | + + + + (“+ + + +” compound exhibited 75% or greater inhibition of calcium ion influx induced by capsaicin stimulation.) |
| COc1cc(C(=O)Nc2cccnc2)ccc1-c1ncccc1Cl [Compound 219] | + (“+” compound exhibited 0-25% inhibition of calcium ion influx induced by capsaicin stimulation.) |
| COc1cc(C(=O)Nc2cc(C)ccn2)ccc1-c1ncccc1Cl [Compound 223] | + + + + (“+ + + +” compound exhibited 75% or greater inhibition of calcium ion influx induced by capsaicin stimulation.) |
| COc1cc(C(=O)Nc2ccncn2)ccc1-c1ncccc1Cl [Compound 225] | + + (“+ +” compound exhibited 25-50% inhibition of calcium ion influx induced by capsaicin stimulation.) |
| COc1cc(C(=O)Nc2ccc(Br)cn2)ccc1-c1ncccc1Cl [Compound 226] | + (“+” compound exhibited 0-25% inhibition of calcium ion influx induced by capsaicin stimulation.) |
| COc1ccc(NC(=O)c2ccc(-c3ncccc3Cl)c(OC)c2)cn1 [Compound 230] | + + (“+ +” compound exhibited 25-50% inhibition of calcium ion influx induced by capsaicin stimulation.) |
| COc1cc(C(=O)Nc2ccnc(Cl)c2)ccc1-c1ncccc1Cl [Compound 231] | + (“+” compound exhibited 0-25% inhibition of calcium ion influx induced by capsaicin stimulation.) |
| COc1cc(C(=O)Nc2cc(C)nc(C)n2)ccc1-c1ncccc1Cl [Compound 232] | + (“+” compound exhibited 0-25% inhibition of calcium ion influx induced by capsaicin stimulation.) |
| COc1cc(C(=O)Nc2ccc3ncccc3c2)ccc1-c1ncccc1Cl [Compound 233] | + + + + (“+ + + +” compound exhibited 75% or greater inhibition of calcium ion influx induced by capsaicin stimulation.) |
| CCn1c2ccccc2c2cc(NC(=O)c3ccc(-c4ncccc4Cl)c(OC)c3)ccc21 [Compound 234] | + (“+” compound exhibited 0-25% inhibition of calcium ion influx induced by capsaicin stimulation.) |
| COc1cc(C(=O)Nc2nccs2)ccc1-c1ncccc1Cl [Compound 235] | + (“+” compound exhibited 0-25% inhibition of calcium ion influx induced by capsaicin stimulation.) |
| COc1cc(C(=O)Nc2ccc3ccccc3c2)ccc1-c1ncccc1Cl [Compound 236] | + + + + (“+ + + +” compound exhibited 75% or greater inhibition of calcium ion influx induced by capsaicin stimulation.) |
| COc1ccc(NC(=O)c2ccc(-c3ncccc3Cl)c(OC)c2)cc1OC [Compound 240] | + (“+” compound exhibited 0-25% inhibition of calcium ion influx induced by capsaicin stimulation.) |
| COc1cc(C(=O)Nc2cccc(C(=O)O)c2)ccc1-c1ncccc1Cl [Compound 241] | + (“+” compound exhibited 0-25% inhibition of calcium ion influx induced by capsaicin stimulation.) |
| COc1cc(C(=O)Nc2ccc(Cl)c(C(=O)O)c2)ccc1-c1ncccc1Cl [Compound 242] | + + + + (“+ + + +” compound exhibited 75% or greater inhibition of calcium ion influx induced by capsaicin stimulation.) |
| COc1cc(C(=O)Nc2cc(OC)c(OC)c(OC)c2)ccc1-c1ncccc1Cl [Compound 246] | + + + + (“+ + + +” compound exhibited 75% or greater inhibition of calcium ion influx induced by capsaicin stimulation.) |
| COc1cc(C(=O)Nc2ccc3cn[nH]c3c2)ccc1-c1ncccc1Cl [Compound 247] | + + (“+ +” compound exhibited 25-50% inhibition of calcium ion influx induced by capsaicin stimulation.) |
| COc1cc(C(=O)Nc2ccc(C#N)c(Cl)c2)ccc1-c1ncccc1Cl [Compound 248] | + + + + (“+ + + +” compound exhibited 75% or greater inhibition of calcium ion influx induced by capsaicin stimulation.) |

| SMILES | % Inhibition @ 1 uM |
| --- | --- |
| COc1cc(C(=O)Nc2cccc(C(F)(F)F)c2)ccc1-c1ncccc1Cl [Compound 250] | + + (“+ +” compound exhibited 25-50% inhibition of calcium ion influx induced by capsaicin stimulation.) |
| COc1cc(C(=O)Nc2cccc(OC(F)(F)F)c2)ccc1-c1ncccc1Cl [Compound 252] | + (“+” compound exhibited 0-25% inhibition of calcium ion influx induced by capsaicin stimulation.) |
| COc1cc(C(=O)Nc2cccc(OC(C)C)c2)ccc1-c1ncccc1Cl [Compound 253] | + (“+” compound exhibited 0-25% inhibition of calcium ion influx induced by capsaicin stimulation.) |
| COc1cc(C(=O)Nc2ccc(F)c(F)c2)ccc1-c1ncccc1Cl [Compound 254] | + + + (“+ + +” compound exhibited 50-75% inhibition of calcium ion influx induced by capsaicin stimulation.) |
| CCOc1ccc(NC(=O)c2ccc(-c3ncccc3Cl)c(OC)c2)cc1 [Compound 256] | + (“+” compound exhibited 0-25% inhibition of calcium ion influx induced by capsaicin stimulation.) |
| COc1cc(C(=O)Nc2ccc(OC)c(C(F)(F)F)c2)ccc1-c1ncccc1Cl [Compound 258] | + + (“+ +” compound exhibited 25-50% inhibition of calcium ion influx induced by capsaicin stimulation.) |
| COc1cc(C(=O)Nc2ccc(N3CCNCC3)c(Cl)c2)ccc1-c1ncccc1Cl [Compound 259] | + (“+” compound exhibited 0-25% inhibition of calcium ion influx induced by capsaicin stimulation.) |
| COc1cc(C(=O)Nc2ccc(-c3cnc[nH]3)cc2)ccc1-c1ncccc1Cl [Compound 260] | + + + (“+ + +” compound exhibited 50-75% inhibition of calcium ion influx induced by capsaicin stimulation.) |
| COc1cc(C(=O)Nc2ccc(Cl)cc2S(=O)(=O)O)ccc1-c1ncccc1Cl [Compound 261] | + (“+” compound exhibited 0-25% inhibition of calcium ion influx induced by capsaicin stimulation.) |
| CCN(CC)CCOC(=O)c1ccc(NC(=O)c2ccc(-c3ncccc3Cl)cc2)cc1 [Compound 265] | + (“+” compound exhibited 0-25% inhibition of calcium ion influx induced by capsaicin stimulation.) |
| CCOC(=O)c1cccc(NC(=O)c2ccc(-c3ncccc3Cl)cc2)c1 [Compound 269] | + (“+” compound exhibited 0-25% inhibition of calcium ion influx induced by capsaicin stimulation.) |
| COc1ccc(NC(=O)c2ccc(-c3ncccc3Cl)cc2)cc1O [Compound 271] | + (“+” compound exhibited 0-25% inhibition of calcium ion influx induced by capsaicin stimulation.) |
| O=C(Nc1ccc2cn[nH]c2c1)c1ccc(-c2ncccc2Cl)cc1 [Compound 273] | + + (“+ +” compound exhibited 25-50% inhibition of calcium ion influx induced by capsaicin stimulation.) |
| CCCOc1ccc(NC(=O)c2ccc(-c3ncccc3Cl)cc2)cc1 [Compound 274] | + (“+” compound exhibited 0-25% inhibition of calcium ion influx induced by capsaicin stimulation.) |
| O=C(Nc1ccc(OC(F)(F)F)cc1)c1ccc(-c2ncccc2Cl)cc1 [Compound 276] | + (“+” compound exhibited 0-25% inhibition of calcium ion influx induced by capsaicin stimulation.) |
| O=C(Nc1cccc(OC(F)(F)F)c1)c1ccc(-c2ncccc2Cl)cc1 [Compound 277] | + (“+” compound exhibited 0-25% inhibition of calcium ion influx induced by capsaicin stimulation.) |
| CC(C)Oc1cccc(NC(=O)c2ccc(-c3ncccc3Cl)cc2)c1 [Compound 278] | + (“+” compound exhibited 0-25% inhibition of calcium ion influx induced by capsaicin stimulation.) |
| O=C(Nc1ccc(F)c(F)c1)c1ccc(-c2ncccc2Cl)cc1 [Compound 279] | + (“+” compound exhibited 0-25% inhibition of calcium ion influx induced by capsaicin stimulation.) |
| CCOc1ccc(NC(=O)c2ccc(-c3ncccc3Cl)cc2)cc1 [Compound 281] | + (“+” compound exhibited 0-25% inhibition of calcium ion influx induced by capsaicin stimulation.) |
| O=C(Nc1ccc(N2CCNCC2)c(Cl)c1)c1ccc(-c2ncccc2Cl)cc1 [Compound 284] | + + + (“+ + +” compound exhibited 50-75% inhibition of calcium ion influx induced by capsaicin stimulation.) |
| CN1CCCc2ccc(NC(=O)c3ccc(-c4ncccc4Cl)cc3)cc21 [Compound 287] | + (“+” compound exhibited 0-25% inhibition of calcium ion influx induced by capsaicin stimulation.) |
| O=C(Nc1ccccc1)c1ccc(-c2ncccc2Cl)cn1 [Compound 289] | + + + + (“+ + + +” compound exhibited 75% or greater inhibition of calcium ion influx induced by capsaicin stimulation.) |
| O=C(Nc1ccc(F)cc1)c1ccc(-c2ncccc2Cl)cn1 [Compound 291] | + (“+” compound exhibited 0-25% inhibition of calcium ion influx induced by capsaicin stimulation.) |
| N#Cc1ccccc1NC(=O)c1ccc(-c2ncccc2Cl)cn1 [Compound 292] | + (“+” compound exhibited 0-25% inhibition of calcium ion influx induced by capsaicin stimulation.) |
